Reference: patent publication US12398132B2, “Derivatives of 4-(imidazo[1,2-a]pyridin-3-yl)-n-(pyridinyl)pyrimidin-2-amine as therapeutic agents” (AUCENTRA THERAPEUTICS PTY LTD, priority 2019, dated 2025)

Legend:
MV-4-11 = assay: Proliferation assay (resazurin/MTT), MV-4-11; type: cell-based; conditions: Homo sapiens, MV4-11, read-out: 72 h Growth inhibition GI50, MV-4-11 cells
FLT3(ITD) = target: T1, FLT3(ITD) (Homo sapiens, UniProt P36888); assay: ADP Glo kinase assay, FLT3(ITD); type: biochemical; conditions: apparent Ki calculated from Km (ATP) and IC50, read-out: FLT3 inhibition Ki
T1 sequence (P36888 1-993): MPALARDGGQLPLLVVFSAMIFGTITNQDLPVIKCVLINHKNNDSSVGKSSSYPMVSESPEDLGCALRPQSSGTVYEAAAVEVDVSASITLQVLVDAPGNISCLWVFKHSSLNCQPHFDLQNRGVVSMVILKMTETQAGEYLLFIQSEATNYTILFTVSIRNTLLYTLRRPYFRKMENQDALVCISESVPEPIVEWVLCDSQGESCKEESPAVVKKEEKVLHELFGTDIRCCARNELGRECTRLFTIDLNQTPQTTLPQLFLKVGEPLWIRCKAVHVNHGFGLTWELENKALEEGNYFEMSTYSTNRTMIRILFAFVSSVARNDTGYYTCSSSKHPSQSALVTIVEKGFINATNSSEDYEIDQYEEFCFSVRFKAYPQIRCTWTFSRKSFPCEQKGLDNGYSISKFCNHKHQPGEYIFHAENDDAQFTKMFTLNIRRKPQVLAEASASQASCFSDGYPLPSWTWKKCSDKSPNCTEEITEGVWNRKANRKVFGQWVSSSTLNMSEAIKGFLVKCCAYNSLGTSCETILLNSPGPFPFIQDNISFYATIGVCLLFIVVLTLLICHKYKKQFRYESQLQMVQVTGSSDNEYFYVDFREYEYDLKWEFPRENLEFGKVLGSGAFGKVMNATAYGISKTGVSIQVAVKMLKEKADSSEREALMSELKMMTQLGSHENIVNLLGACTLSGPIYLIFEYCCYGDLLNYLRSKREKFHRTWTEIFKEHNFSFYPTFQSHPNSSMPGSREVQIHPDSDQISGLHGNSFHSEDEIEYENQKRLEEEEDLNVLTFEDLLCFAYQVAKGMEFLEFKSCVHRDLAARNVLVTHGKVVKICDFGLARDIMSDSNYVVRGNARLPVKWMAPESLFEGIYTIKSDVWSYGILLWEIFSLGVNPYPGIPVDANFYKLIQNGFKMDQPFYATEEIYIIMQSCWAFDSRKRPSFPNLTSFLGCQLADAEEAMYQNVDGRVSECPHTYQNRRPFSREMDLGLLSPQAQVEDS
Procedure: Inhibition of FLT3(WT), FLT3(ITD) and FLT3(D835Y) and CDKs were determined using ADP Glo Kinase assays (Promega Corporation, Madison, WI, USA). […] The kinase reactions are run for an optimised time period (FLT3-WT: 120 min, FLT3-ITD: 80 min, FLT3-D835Y: 100 min) at room temperature and then the reaction was stopped by adding 5 μL of ADP Glo reagent. […] Positive and negative controls were performed in 0.5% DMSO in the presence and absence of each FLT3 kinase, respectively. […] Half-maximal inhibition (IC50) values were calculated using a 4-parameter logistic non-linear regression model with Graphpad prism (Version 6.0). Apparent inhibition constants (Ki) values were calculated from Km (ATP) and IC50 values for the respective kinases.

U937 = assay: Proliferation assay (resazurin/MTT), U937; type: cell-based; conditions: Homo sapiens, U-937, read-out: 72 h Growth inhibition GI50, U937 cells
CDK9/CyclinT1 = CDK9/CyclinT1 (Homo sapiens, UniProt P50750); assay: ADP Glo kinase assay, CDK9/CyclinT1; type: biochemical; conditions: CDK9T1; apparent Ki calculated from Km (ATP) and IC50; read-out: CDK inhibition Ki
CDK9/CyclinT1, sequence (P50750 whole entry, species assumed): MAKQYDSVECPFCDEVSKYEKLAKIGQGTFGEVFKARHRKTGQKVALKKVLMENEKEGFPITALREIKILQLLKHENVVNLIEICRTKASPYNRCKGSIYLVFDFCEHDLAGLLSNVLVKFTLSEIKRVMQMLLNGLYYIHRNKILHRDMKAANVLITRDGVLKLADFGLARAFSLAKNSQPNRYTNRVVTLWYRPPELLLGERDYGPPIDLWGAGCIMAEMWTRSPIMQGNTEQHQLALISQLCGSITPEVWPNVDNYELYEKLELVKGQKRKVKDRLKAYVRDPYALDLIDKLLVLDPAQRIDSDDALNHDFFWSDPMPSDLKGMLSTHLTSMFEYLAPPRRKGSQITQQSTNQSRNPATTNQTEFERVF
CDK9/CyclinT1, sequence (O60563 whole entry partner, species assumed): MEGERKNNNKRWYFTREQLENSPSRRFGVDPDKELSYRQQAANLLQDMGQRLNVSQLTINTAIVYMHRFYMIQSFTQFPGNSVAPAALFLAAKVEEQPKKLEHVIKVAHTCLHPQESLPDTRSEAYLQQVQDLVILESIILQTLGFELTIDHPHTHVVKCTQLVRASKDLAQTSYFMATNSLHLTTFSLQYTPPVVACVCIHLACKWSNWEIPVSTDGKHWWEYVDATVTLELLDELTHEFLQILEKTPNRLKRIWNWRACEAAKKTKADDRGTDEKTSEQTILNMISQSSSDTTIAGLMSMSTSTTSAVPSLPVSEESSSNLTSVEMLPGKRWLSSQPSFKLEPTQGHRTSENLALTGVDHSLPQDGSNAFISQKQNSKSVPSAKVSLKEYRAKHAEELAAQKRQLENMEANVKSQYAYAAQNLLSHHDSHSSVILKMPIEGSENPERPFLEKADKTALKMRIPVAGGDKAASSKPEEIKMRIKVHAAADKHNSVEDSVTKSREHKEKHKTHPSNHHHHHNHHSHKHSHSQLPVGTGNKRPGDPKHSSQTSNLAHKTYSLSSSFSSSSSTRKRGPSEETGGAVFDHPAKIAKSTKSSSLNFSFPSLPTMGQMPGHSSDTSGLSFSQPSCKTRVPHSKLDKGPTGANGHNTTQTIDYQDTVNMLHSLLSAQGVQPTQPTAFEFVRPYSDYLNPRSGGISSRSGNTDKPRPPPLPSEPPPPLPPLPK

CDK2E1 = CDK2E1 (Homo sapiens, UniProt P24941); conditions: 1 µM

SMILES	GI50 (MV-4-11) [µM]	Ki (FLT3(ITD)) [µM]	GI50 (U937) [µM]	Ki (CDK9/CyclinT1) [µM]	activity (CDK2E1) [%]
CC(=O)N1CCN(c2ccc(Nc3nccc(-c4cnc5ccc(-c6cnn(C7CCN(C(=O)OC(C)(C)C)CC7)c6)cn45)n3)nc2)CC1 [Cmpd 60, Tert-butyl 4-(4-(3-(2-((5-(4-acetylpiperazin-1-yl)pyridin-2-yl)amino)pyrimidin-4-yl)imidazo[1,2-a]pyridin-6-yl)-1H-pyrazol-1-yl)piperidine-1-carboxylate]	0.019	0.084	0.243		
CC(=O)N1CCN(c2ccc(Nc3nccc(-c4cnc5ccc(C6=CCN(C(=O)OC(C)(C)C)CC6)cn45)n3)nc2)CC1 [Cmpd 63, Tert-butyl 4-(3-(2-((5-(4-acetylpiperazin-1-yl)pyridin-2-yl)amino)pyrimidin-4-yl)imidazo[1,2-a]pyridin-6-yl)-3,6-dihydropyridine-1(2H)-carboxylate]	0.035	0.132	0.436		
CC(C)(C)OC(=O)N1CC=C(c2ccc(Nc3nccc(-c4cnc5ccccn45)n3)nc2)CC1 [Cmpd 64, Tert-butyl 6-((4-(imidazo[1,2-a]pyridin-3-yl)pyrimidin-2-vi)amino)-3′,6′-dihydro-[3,4′-bipyridine]-1′(2′H)-carboxylate]	0.152	0.308	0.367		
CN1CCN(c2ccc(Nc3nccc(-c4cnc5ccc(-c6cccnc6)cn45)n3)nc2)CC1 [Cmpd 65, N-(5-(4-Methylpiperazin-1-yl)pyridin-2-yl)-4-(6-(pyridin-3-yl)imidazo[1,2-a]pyridin-3-yl)pyrimidin-2-amine]	0.032	0.03	0.382		
CN1CCN(c2ccc(Nc3nccc(-c4cnc5ccc(-c6cncnc6)cn45)n3)nc2)CC1 [Cmpd 66, N-(5-(4-Methylpiperazin-1-yl)pyridin-2-yl)-4-(6-(pyrimidin-5-yl)imidazo[1,2-a]pyridin-3-yl)pyrimidin-2-amine]	0.174	0.116	1.09	0.345	80
CCN1CCN(Cc2ccc(Nc3ncc(F)c(-c4cnc5ccc(-c6ccccc6)cn45)n3)nc2)CC1 [Cmpd 68, N-(5-((4-Ethylpiperazin-1-yl)methyl)pyridin-2-yl)-5-fluoro-4-(6-phenylimidazo[1,2-a]pyridin-3-yl)pyrimidin-2-amine]	0.117	0.07	0.6		

The next molecules have a lower GI50 (MV-4-11) than those just listed; values first:

GI50 (MV-4-11) [µM]	Ki (FLT3(ITD)) [µM]	GI50 (U937) [µM]	Ki (CDK9/CyclinT1) [µM]	activity (CDK2E1) [%]	SMILES
0.004	0.006	0.728			CC(=O)N1CCN(c2ccc(Nc3nccc(-c4cnc5ccc(-c6cc[nH]n6)cn45)n3)nc2)CC1 [Cmpd 57, 1-(4-(6-((4-(6-(1H-Pyrazol-3-yl)imidazo[1,2-a]pyridin-3-yl)pyrimidin-2-yl)amino)pyridin-3-yl)piperazin-1-yl)ethan-1-one]
0.009	0.049	0.206			CC(=O)N1CCN(c2ccc(Nc3nccc(-c4cnc5ccc(-c6ccn(C)n6)cn45)n3)nc2)CC1 [Cmpd 58, 1-(4-(6-((4-(6-(1-Methyl-1H-pyrazol-3-yl)imidazo[1,2-a]pyridin-3-yl)pyrimidin-2-yl)amino)pyridin-3-yl)piperazin-1-yl)ethan-1-one]
0.008	0.018	0.462			CC(=O)N1CCN(c2ccc(Nc3nccc(-c4cnc5ccc(-c6cnn(C(F)F)c6)cn45)n3)nc2)CC1 [Cmpd 59]
< 0.0001	0.004	0.199			CC(=O)N1CCN(c2ccc(Nc3nccc(-c4cnc5ccc(-c6ccc(C)o6)cn45)n3)nc2)CC1 [Cmpd 61, 1-(4-(6-((4-(6-(5-Methylfuran-2-yl)imidazo[1,2-a]pyridin-3-yl)pyrimidin-2-yl)amino)pyridin-3-yl)piperazin-1-yl)ethan-1-one]
0.006	0.029	0.773			CN1CCN(c2ccc(Nc3nccc(-c4cnc5ccc(-c6cnn(C)c6)cn45)n3)nc2)CC1 [Cmpd 62, 4-(6-(1-Methyl-1H-pyrazol-4-yl)imidazo[1,2-a]pyridin-3-yl)-N-(5-(4-methylpiperazin-1-yl)pyridin-2-yl)pyrimidin-2-amine]
0.018	0.016	0.946			CN(C)C1CCN(c2ccc(Nc3ncc(F)c(-c4cnc5ccc(-c6ccccc6)cn45)n3)nc2)CC1 [Cmpd 69, N-(5-(4-(Dimethylamino)piperidin-1-yl)pyridin-2-yl)-5-fluoro-4-(6-phenylimidazo[1,2-a]pyridin-3-yl)pyrimidin-2-amine]
